We go through 18 molecules from patent publication US5411965A, “Use of delta opioid receptor antagonists to treat cocaine abuse” (Arizona Board of Regents, priority 1993, dated 1995).

The format of test [1] is in vivo, rats. From the text:
When rats are fixed with chronically indwelling bipolar electrodes for electrical stimulation of the medial forebrain bundle, they will press levers for brief durations of stimulation. The higher the intensity of stimulation, the greater the pressing. […] These relationships plus extant theory provide the rationale for using pressing for brain stimulation as a means of assessing the reinforcing effects of drugs and assessing which drugs might affect another drug's reinforcing effects.
The particulars of the procedures used herein are briefly summarized. Further information is in Reid (cited above) and Reid et al. (Life Sciences, 52, PL67-71 (1993)). Rats were fixed with chronically indwelling bipolar electrodes. Using standard stereotaxic methods, which includes full anesthesia, the tips of the electrode were aimed to stimulate the medial forebrain bundle as it traverses the lateral hypothalamus. With the skull held in a stereotaxic instrument so that a plane between bregma and lamba was perpendicular to the shaft of the electrode, the following stereotaxic coordinates were used: 3.5 mm posterior to brema, 1.6 mm lateral to the midline, and 8.6 mm below the surface of the skull.
The apparatus of these tests was a Skinner box (24×30 ×38 cm) equipped with a lever (2.5×2 cm). Each box was fixed with electrical leads and a slip-ring apparatus that allowed the rat to be connected to the electrical stimulator for intracranial stimulation, but allowed the rat to move freely in the box.
Upon full recovery from surgery, rats were trained to press a lever in the Skinner box for electrial stimulation of the brain. The electrical stimulation was 60 Hz sine waves of 0.3 sec. The maximum intensity used was of 50 microAmps. Each lever press delivered one 0.3-sec of brain stimulation.
Just after rats learned to press the lever, the intensity of the brain stimulation was varied. Three intensities were chosen. The lowest intensity was one that was barely sufficient to sustain lever pressing. The highest intensity sustained high rates of pressing, but not the highest rates that a rat can achieve. The medium intensity was about midway between the lowest and the highest. Once a set of intensities were established for each rat, those intensities remained fixed throughout the balance of testing. […] Each rat was under a daily regimen. They were allowed to press for each of three intensities of brain stimulation for 10 minutes. […] They were allowed to press the lever under this daily regimen under level-pressing rates became stable. Then, drugs (or placebos) were administered.
The methods of Example 5 were nearly the same as those of Example 4. Rats were fixed, using standard procedures, with chronically indwelling electrodes for stimulation of the medial forebrain bundle. Subsequent to recovery from surgery, they were trained to press for brain stimulation. After each learned to press, they were put on a daily regimen. That daily regimen involved pressing for 5 min at a high intensity of brain stimulation, followed by 5-minute sessions with medium, low, low, medium and then high intensity. Intensities were set for each rat so that pressing rate for the low intensity was rather slow (the low intensity being near lower threshold for maintaining pressing), pressing for the high intensity was at a high rate, and pressing for the medium intensity was between the rate for low and high intensity. Pressing at each intensity was averaged for an index of rat's responsiveness at that intensity.

For another test, the target named is mu opioid receptor. To be noted: agonist morphine in GPI; antagonist 100 or 200 nM, 15 min; read-out: Ke; cited from earlier work.
The next test deals with kappa opioid receptor. To be noted: agonist ethylketazocine in GPI; antagonist 100 or 200 nM, 15 min; read-out: Ke, EK; cited from earlier work.
For the next test, the target named is delta opioid receptor (Mus musculus, UniProt P32300). As to the kind of experiment: Antagonism of DADLE in the mouse vas deferens (MVD) preparation. Type of test: cell-based. The conditions noted are these: in words. The procedure: Furthermore, the MVD responds selectively to delta opioids.
(§1) 2. Mouse Vas Deferens (MVD). […] The organ bath was maintained at 37° C.

Test [2] relates to mouse vas deferens (MVD) and guinea pig ileum (GPI). The test can be described thus: Agonist activity in MVD and GPI preparations. Type of test: cell-based. The conditions noted are these: in words. The procedure:
1. Guinea Pig Ileal Longitudinal Muscle (GPI). Ilea from guinea pigs were taken approximately 10 cm from the ileocaecal junction, and a strip of longitudinal muscle with the myenteric plexus attached was prepared by method of Rang et al., Brit. J. Pharmacol., 22, 356 (1964), the disclosure of which is incorporated by reference herein. A 1 cm portion of this strip was then mounted between two platinum electrodes placed in a 10 ml organ bath and connected to an isometric transducer. Contractions were recorded on a polygraph. […] The organ bath was maintained at 36°-37° C. The longitudinal muscle strip was allowed to equilibrate with continuous stimulation for a minimum of 90 min.
as §1

For test [3] the following is noted: cited from earlier work.

Entries after “also recorded” stand apart in the source; their conditions may differ. A value given as a limit tells only on which side of the number the result lay.

Chain of delta opioid receptor (P32300 whole entry): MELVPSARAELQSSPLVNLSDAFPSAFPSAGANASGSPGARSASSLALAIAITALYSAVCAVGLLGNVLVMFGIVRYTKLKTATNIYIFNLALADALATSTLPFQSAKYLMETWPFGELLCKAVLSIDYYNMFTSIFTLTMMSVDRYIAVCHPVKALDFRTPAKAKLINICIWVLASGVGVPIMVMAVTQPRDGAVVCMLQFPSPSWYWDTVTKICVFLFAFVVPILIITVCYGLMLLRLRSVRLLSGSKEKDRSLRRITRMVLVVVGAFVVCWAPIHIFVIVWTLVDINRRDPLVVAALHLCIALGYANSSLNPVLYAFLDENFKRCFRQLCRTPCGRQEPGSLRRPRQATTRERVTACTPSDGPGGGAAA

With `CC(N)Cc1ccccc1` (centres unmarked) [Amphetamine, phenylisopropylamine, reference compound], in test [1] (rat, in vivo), the “pressing for brain stimulation, amphetamine alone” value was “produced an increment in pressing; also recorded: produced increased pressing compared to pressing under the influence of placebo”.

Regarding `O=C1C(=Cc2ccccc2)C[C@@]2(O)[C@H]3Cc4ccc(O)c5c4[C@@]2(CCN3CC2CC2)[C@H]1O5` [BNTX, 7-benzylidenenaltrexone], the “pressing for brain stimulation, BNTX plus cocaine” value in test [1] (rat, in vivo) is “reduced cocaine's (5 mg/kg) facilitation of pressing for rewarding brain stimulation in a fashion similar to the reduction observed for NTI; also recorded: extraordinarily effective in blocking cocaine's salient effects”.

In the case of `Cn1c2c(c3ccccc31)C[C@@]1(O)[C@H]3Cc4ccc(O)c5c4[C@@]1(CCN3CC1CC1)[C@H]2O5` [Compound 2], the Kb on mu opioid receptor was 12.5 nM; at kappa opioid receptor it was 22.2 nM.

With `Oc1ccc2c3c1O[C@H]1c4[nH]c5ccc(F)cc5c4C[C@@]4(O)[C@@H](C2)N(CC2CC2)CC[C@]314` [Compound 3], the values for the Kb on mu opioid receptor and at kappa opioid receptor were 61.7 nM and 46.2 nM, respectively.

For the molecule `COc1ccc2[nH]c3c(c2c1)C[C@@]1(O)[C@H]2Cc4ccc(O)c5c4[C@@]1(CCN2CC1CC1)[C@H]3O5` [Compound 4], the Kb is 63 nM on mu opioid receptor and 12.6 nM at kappa opioid receptor.

In the case of `Cc1ccc2[nH]c3c(c2c1)C[C@@]1(O)[C@H]2Cc4ccc(O)c5c4[C@@]1(CCN2CC1CC1)[C@H]3O5` [Compound 5], the Kb on mu opioid receptor was over 160 nM; on kappa opioid receptor, over 250 nM.

Take `O=[N+]([O-])c1ccc2[nH]c3c(c2c1)C[C@@]1(O)[C@H]2Cc4ccc(O)c5c4[C@@]1(CCN2CC1CC1)[C@H]3O5` [Compound 6]: the figures for the Kb at mu opioid receptor and at kappa opioid receptor were 92 nM and at least 200 nM, respectively.

Consider `CN1CC[C@]23c4c5ccc(O)c4O[C@H]2c2[nH]c4ccccc4c2C[C@@]3(O)[C@H]1C5` [Compound 7], for which the “antagonism of the effect of the delta agonist DADLE” value at delta opioid receptor was “inactive”. In test [2], the agonist activity entry is given as “exhibited partial agonist activity”.

As to `Oc1ccc2c3c1O[C@H]1c4oc5ccccc5c4C[C@@]4(O)[C@@H](C2)N(CC2CC2)CC[C@]314` [Compound 8, 17-(cyclopropylmethyl)-6,7-dehydro-3,14β-dihydroxy-4,5α-epoxy-6,7-2',3'-benzo[b]furanomorphinan], at delta opioid receptor, the “delta antagonist potency and selectivity” value was “less potent and less selective than 1 as a delta antagonist, nevertheless retains substantial delta antagonist activity”. Further, the Kb at mu opioid receptor was 30.8 nM; at kappa opioid receptor, 50.8 nM.

As for `Oc1ccc2[nH]c3c(c2c1)C[C@@]1(O)[C@H]2Cc4ccc(O)c5c4[C@@]1(CCN2CC1CC1)[C@H]3O5` [Compound 9], the Kb on mu opioid receptor was 27.2 nM; on kappa opioid receptor, 68.5 nM.

Regarding `Oc1ccc2c3c1O[C@H]1c4[nH]c5cccc(F)c5c4C[C@@]4(O)[C@@H](C2)N(CC2CC2)CC[C@]314` [Compound 10], the results for the Kb on mu opioid receptor and at kappa opioid receptor were over 125 nM and over 170 nM, respectively.

Turning to `Oc1ccc2c3c1O[C@H]1c4[nH]c5c(F)cccc5c4C[C@@]4(O)[C@@H](C2)N(CC2CC2)CC[C@]314` [Compound 11], the Kb at mu opioid receptor is 5.3 nM; at kappa opioid receptor it was over 330 nM.

In the case of `Cc1cccc2c3c([nH]c12)[C@@H]1Oc2c(O)ccc4c2[C@@]12CCN(CC1CC1)[C@H](C4)[C@]2(O)C3` [Compound 13], the Kb on mu opioid receptor was 19.1 nM; on kappa opioid receptor it was over 330 nM.

As for `COc1cccc2c3c([nH]c12)[C@@H]1Oc2c(O)ccc4c2[C@@]12CCN(CC1CC1)[C@H](C4)[C@]2(O)C3` [Compound 14], on mu opioid receptor, the Kb was 35 nM.

As to `Oc1ccc2c3c1O[C@H]1c4nc5ccccc5nc4C[C@@]4(O)[C@@H](C2)N(CC2CC2)CC[C@]314` [Compound 16], on delta opioid receptor, the “delta antagonist potency and selectivity” value is “A similar relationship was observed”. The Kb on mu opioid receptor is 6.1 nM; at kappa opioid receptor, 13.4 nM.

For the molecule `Oc1ccc2c3c1O[C@H]1c4nc5ccccc5cc4C[C@@]4(O)[C@@H](C2)N(CC2CC2)CC[C@]314` [Compound 17], the “delta antagonist potency and selectivity” value on delta opioid receptor is listed as “A similar relationship was observed”. Besides, the Kb on mu opioid receptor was 11.3 nM; at kappa opioid receptor, 16.3 nM.

For the molecule `CNC(C)Cc1ccc2c(c1)OCO2` (centres unmarked) [MDMA, N-monomethyl-3,4-methylenedioxyphenylisopropylamine, reference compound], the “mean presses at High intensity, MDMA plus Placebo” value in test [1] (High intensity of intracranial stimulation, six rats) amounted to 922 presses per ten minutes. Besides, the “mean presses at Low intensity, MDMA plus Placebo” value in test [1] (Low intensity of intracranial stimulation, six rats) is 288 presses per ten minutes. Moreover, the “mean presses at Medium intensity, MDMA plus Placebo” value in test [1] (Medium intensity of intracranial stimulation, six rats) came to 563 presses per ten minutes. The “pressing for brain stimulation, MDMA alone” value in test [1] (in words) is on record as “increased pressing”. For the same molecule, the “average increase in pressing, MDMA” value in test [1] (low intensity, factor) was “four times”. In test [3] (drug alone, literature), the conditioned place preference result is “produces a conditioned place preference among rats”.

In the case of `O=C1CC[C@@]2(O)[C@H]3Cc4ccc(O)c5c4[C@@]2(CCN3CC2CC2)[C@H]1O5` [naltrexone], in test [3] (given alone, literature), the conditioned place aversion result is “condition place aversions”. Moreover, in test [3] (rat, in vivo), the “effect on MDMA's conditioned place preference” value was “attenuated but not blocked” and the “effect on cocaine's conditioned place preference” value is listed as “attenuate cocaine's reinforcing properties”.
